Data reported in patent US9980943B2, “Methods of treating muscular dystrophy” (BOARD OF REGENTS OF THE NEVADA SYSTEM OF HIGHER EDUCATION, …, priority 2013, dated 2018).
Several values for one entry are separate records, joined by “and”; a condition that tells them apart may be missing. Equal entries are not always repeated.

Experiments:
Format in all cases: cell-based, mouse
[1] = tested on: α7 integrin (LacZ reporter in α7βgal+/− myoblasts); assay: Myoblast α7+/LacZ integrin FDG assay (Burkin assay in myoblasts, 96-well); settings: α7+/LacZ myoblasts, 96-well
[2] = tested on: α7 integrin (LacZ reporter in α7+/LacZ myotubes); assay: Myotube α7 integrin FDG assay (Burkin assay in myotubes, 96-well); settings: myotubes
[3] = tested on: β-galactosidase in CMV-LacZ C2C12 myoblasts; assay: CMV-LacZ secondary screen in C2C12 myoblasts (β-Gal stabilizing assay); settings: CMV-LacZ C2C12 myoblasts
Method in brief: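 C2C12 myoblasts stably carrying a linearized CMV-driven LacZ construct, clone chosen by β-gal level in the myoblast FDG assay. Compounds tested in 96-well dose-response at 0.5, 1, 5, 10, 20 and 40 μM, N=2 replicates per point, to detect β-gal stabilization.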

[4] = tested on: β-galactosidase in CMV-LacZ C2C12 myotubes; assay: CMV-LacZ secondary screen in C2C12 myotubes (β-Gal stabilizing assay); settings: C2C12 CMV-LacZ myotubes, fold relative to DMSO
Method in brief: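 Dose-response runs at 0.5–40 μM (0.5, 1, 5, 10, 20, 40 μM; N=2 per point) used a clonal C2C12 line carrying CMV-LacZ. Cells were assayed as myoblasts or as differentiated myotubes, and β-galactosidase levels were read with the FDG fluorogenic substrate.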

Row | SMILES | Burkin Assay in Myoblasts, signal relative to DMSO ([1]; 0.5 uM) | Burkin Assay in Myoblasts, signal relative to DMSO ([1]; 1 uM) | Burkin Assay in Myoblasts, signal relative to DMSO ([1]; 5 uM) | Burkin Assay in Myoblasts, signal relative to DMSO ([1]; 10 uM) | Burkin Assay in Myoblasts, signal relative to DMSO ([1]; 20 uM) | Burkin Assay in Myoblasts, signal relative to DMSO ([1]; 40 uM) | Burkin Assay in Myotubes, α7 integrin LacZ reporter signal relative to DMSO ([2]; 0.5 uM) | Burkin Assay in Myotubes, α7 integrin LacZ reporter signal relative to DMSO ([2]; 1 uM) | Burkin Assay in Myotubes, α7 integrin LacZ reporter signal relative to DMSO ([2]; 5 uM) | Burkin Assay in Myotubes, α7 integrin LacZ reporter signal relative to DMSO ([2]; 10 uM) | Burkin Assay in Myotubes, α7 integrin LacZ reporter signal relative to DMSO ([2]; 20 uM) | Burkin Assay in Myotubes, α7 integrin LacZ reporter signal relative to DMSO ([2]; 40 uM) | CMV-LACZ in Myoblasts (β-galactosidase activity relative to DMSO) ([3]; 0.5 uM) | CMV-LACZ in Myoblasts (β-galactosidase activity relative to DMSO) ([3]; 1 uM) | CMV-LACZ in Myoblasts (β-galactosidase activity relative to DMSO) ([3]; 5 uM) | CMV-LACZ in Myoblasts (β-galactosidase activity relative to DMSO) ([3]; 10 uM) | CMV-LACZ in Myoblasts (β-galactosidase activity relative to DMSO) ([3]; 20 uM) | CMV-LACZ in Myoblasts (β-galactosidase activity relative to DMSO) ([3]; 40 uM) | CMV-LACZ in Myotubes, signal relative to DMSO ([4]; 0.5 uM) | CMV-LACZ in Myotubes, signal relative to DMSO ([4]; 1 uM) | other results
1 | CC(C(=O)Nc1ccc(C#N)cc1)N(C)CC(=O)Nc1cccc(F)c1 (stereo not drawn) [MLS001033255-01] | 1.013 | 0.9373 | 1.017 | 1.124 | 0.985 | 0.8279 | 0.91 | 0.8188 | 1.086 | 1.246 | 0.8337 | 1.232 | 0.7590 | 1.0723 | 0.8766 | 1.0219 | 1.1919 | 0.7905 | 1.1038 | 1.1438 | Burkin Assay in Myoblasts, value relative to DMSO ([1]; 0.5 uM): 0.9467; Burkin Assay in Myoblasts, value relative to DMSO ([1]; 1 uM): 0.9407; Burkin Assay in Myoblasts, value relative to DMSO ([1]; 5 uM): 0.9509; Burkin Assay in Myoblasts, value relative to DMSO ([1]; 10 uM): 0.9542; Burkin Assay in Myoblasts, value relative to DMSO ([1]; 20 uM): 0.7962; Burkin Assay in Myoblasts, value relative to DMSO ([1]; 40 uM): 0.799; Burkin Assay in Myotubes (signal relative to DMSO) ([2]; 0.5 uM): 0.9678; Burkin Assay in Myotubes (signal relative to DMSO) ([2]; 1 uM): 0.9526; Burkin Assay in Myotubes (signal relative to DMSO) ([2]; 5 uM): 1.213; Burkin Assay in Myotubes (signal relative to DMSO) ([2]; 10 uM): 0.997; Burkin Assay in Myotubes (signal relative to DMSO) ([2]; 20 uM): 0.8683; Burkin Assay in Myotubes (signal relative to DMSO) ([2]; 40 uM): 1.04; CMV-LACZ in Myotubes, signal relative to DMSO ([4]; 5 uM): 0.9525 and 0.8423; CMV-LACZ in Myotubes, signal relative to DMSO ([4]; 10 uM): 1.0297 and 1.045; CMV-LACZ in Myotubes, signal relative to DMSO ([4]; 20 uM): 0.9930 and 1.013; CMV-LACZ in Myotubes, signal relative to DMSO ([4]; 40 uM): 0.7740 and 1.236
2 | Cc1noc(C)c1COc1ccc(C(=O)NCCc2ccccn2)cc1 [MLS001061374-01] | 0.8477 | 0.8448 | 0.9826 | 1.169 | 0.873 | 0.6774 | 1.058 | 1.092 | 1.004 | 1.181 | 0.732 | 0.8155 | 0.7117 | 1.1702 | 1.0601 | 0.9793 | 0.9744 | 1.1037 | 1.2568 | 1.1000 | CMV-LACZ in Myotubes, signal relative to DMSO ([4]; 5 uM): 1.1237; CMV-LACZ in Myotubes, signal relative to DMSO ([4]; 10 uM): 0.8498; CMV-LACZ in Myotubes, signal relative to DMSO ([4]; 20 uM): 1.1689; CMV-LACZ in Myotubes, signal relative to DMSO ([4]; 40 uM): 1.0489
3 | O=C(O)CC1(c2ccccc2)C(=O)c2ccccc2C1=O [MLS000052969-01] | 1.25 | 1.352 | 0.9646 | 0.8356 | 0.8292 | 0.7591 | 0.9131 | 1.058 | 0.9184 | 0.876 | 0.6621 | 0.5548 | 0.8950 | 1.0529 | 0.9976 | 1.0444 | 1.1522 | 0.6800 | 0.9152 | 1.1714 | CMV-LACZ in Myotubes, signal relative to DMSO ([4]; 5 uM): 1.0651; CMV-LACZ in Myotubes, signal relative to DMSO ([4]; 10 uM): 0.8406; CMV-LACZ in Myotubes, signal relative to DMSO ([4]; 20 uM): 0.9800; CMV-LACZ in Myotubes, signal relative to DMSO ([4]; 40 uM): 0.9726
